Data published in patent US10473645B2, “Methods for identifying a receptor for a ligand and uses thereof” (UNIVERSITE DE GENEVE, priority 2014, dated 2019).

Experiments:
olfr145 = molecular target: T1, olfr145 (Mus musculus, UniProt Q60882); experiment: OR transcript downregulation by RNAseq after in vivo exposure; details: 5% odorant, 5 hours
T1 construct: from tissue; host or cells: main olfactory epithelium of living mice
Procedure: Animals were exposed to 5% acetophenone for 5 hours before RNA extraction (as previously described). cDNA libraries were generated with the Truseq RNA and DNA sample preparation kits after selection of polyA-containing mRNAs. Adapters for RNAseq multiplexing were added to the cDNAs. The cDNA libraries were sequenced with a HiSeq®2500 Sequencing system. 100 bp reads were mapped using Bowtie2 with a 28 bp seed. The differential gene expression analyses were performed with DESeq2. Because of the high sequence similarity between OR gene paralogs, some reads are mapped to multiple OR genes. These reads were removed from the analysis.
(§1) Mice (n=6) were exposed to 5% acetophenone or to a “neutral” control condition for 5 hours. An olfactory cDNA library corresponding to each animal was deep sequenced and the ratios of odorant receptor mRNA concentrations relative to controls were plotted (FIG. 3). […] Based on transcriptional downregulation levels observed by RNAseq following acetophenone exposure, a list of 26 candidate responsive ORs was determined (FIG. 3), that reached 74% decrease (Olfr145) or even over 80% (Olfr169) relative to controls. […] The transcript downregulation of 21 out of the 26 olfactory receptor candidates obtained by RNAseq was confirmed by qPCR.

Olfr556 = molecular target: T2, Olfr556 (Mus musculus, UniProt B2RRG2); details: expressed in HEK cells; previously shown; read-out: EC50 as agonist of Olfr556; cited from earlier work
T2 sequence (B2RRG2 1-324): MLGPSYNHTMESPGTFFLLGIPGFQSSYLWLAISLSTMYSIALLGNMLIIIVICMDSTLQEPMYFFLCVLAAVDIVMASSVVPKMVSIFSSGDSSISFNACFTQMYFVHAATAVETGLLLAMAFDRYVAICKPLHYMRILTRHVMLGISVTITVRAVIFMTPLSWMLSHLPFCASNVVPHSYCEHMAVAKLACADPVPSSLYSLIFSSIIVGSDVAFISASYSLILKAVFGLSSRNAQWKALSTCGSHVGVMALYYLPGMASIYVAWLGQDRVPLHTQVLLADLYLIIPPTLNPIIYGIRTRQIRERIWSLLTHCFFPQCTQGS

olfr745 = experiment: OR transcript level by RT-qPCR after in vivo odorant exposure; design: species or system mouse; key: The transcript downregulation of 21 out of the 26 olfactory receptor candidates obtained by RNAseq was confirmed by qPCR; false RNAseq positive candidates, namely OR candidates for which in fact mRNA was not downregulated following acetophenone exposure; details: 5% acetophenone exposure
Procedure: (§2) In vivo exposure to odorant: Starting 48 h before experiments, mice were habituated to pure DMSO on a cotton ball. 200 μl were pipetted directly onto the cotton and placed in the cage, replacing any cotton that was already in the cage for nest-making purposes.
(§3) On the day of the experiment, mice receiving odorants were transferred to a different room, where they were exposed to a cotton ball on which 200 μl of odorant diluted in pure DMSO were deposited. Exposures started in the morning between 8 and 10 am (that is two hours after lights were on) and mice were killed and dissected between 1 and 3 pm. […] If a number of different odorants were tested in the same experiment, a different overpressurized room would always be used for each odorant to avoid odor cross-contamination.
(§4) After odorant exposure, mice were killed by cervical dislocation and immediately decapitated. The main olfactory epithelia (MOE), were harvested in their entirety and transferred to a tube containing 600 μl of lysis buffer and β-mercaptoethanol (RNAeasy kit, Qiagen, following the manufacturer protocol) and a 0.5 cm diameter steel ball, and then put on ice. Samples were then homogenized using a FastPrep®-24 instrument (MP Biomedicals) at 6 m/s for 30 s and left on ice. RNA extraction was performed on all samples in parallel using the Qiagen RNeasy Mini® kit following the manufacturer's instructions. Two DNase treatments were performed on all samples: first using the Qiagen RNase-Free DNase Set® and then using the Life Technologies Ambion DNase I® kit. RNA samples were then aliquoted and stored at −80° C.
(§5) RNA concentrations were determined using an Amersham Ultrospec® 3100 Pro spectrophotometer, and RNA quality was evaluated with an Agilent Technologies 2100 Bioanalyzer®. Each reverse transcription was performed with 0.5 μg RNA using the Takara Primescript® kit, in a final volume of 10 μl. Primers for reverse transcription were equal mixtures of poly-T nucleotides and random hexamers. Negative controls (omitting the reverse transcriptase enzyme) were performed for each sample. 1/14th of the cDNA preparation was used for each triplicated qPCR reaction.
(§6) qPCR Ct values were analyzed using an in-house developed Microsoft Excel® macro file. Triplicate values were compared and outliers (values with a difference higher than 0.5 Ct to their nearest neighbor) were discarded. The number of conditions with an outlying value was always less than 10% of the total number of conditions. Ct values were converted to quantities relative to the maximum for each given gene. Selected reference genes were then analyzed for variance using the geNorm algorithm. All values were normalized with the olfactory tissue-specific genes Omp and Adcy3. β-Actin was used as a non-tissue-specific reference gene to control for differences in dissection between samples.
as §1

olfr1350 = experiment: as above; design: species or system mouse; key: The transcript downregulation of 21 out of the 26 olfactory receptor candidates obtained by RNAseq was confirmed by qPCR; false RNAseq positive candidates, namely OR candidates for which in fact mRNA was not downregulated following acetophenone exposure; details: 5% acetophenone exposure
Procedure: as §2, §3, §4, §5, §6, §1

olfr922 = experiment: as above; design: species or system mouse; key: The transcript downregulation of 21 out of the 26 olfactory receptor candidates obtained by RNAseq was confirmed by qPCR; false RNAseq positive candidates, namely OR candidates for which in fact mRNA was not downregulated following acetophenone exposure; details: 5% acetophenone exposure
Procedure: as §2, §3, §4, §5, §6, §1

olfr901 = experiment: as above; design: species or system mouse; key: The transcript downregulation of 21 out of the 26 olfactory receptor candidates obtained by RNAseq was confirmed by qPCR; false RNAseq positive candidates, namely OR candidates for which in fact mRNA was not downregulated following acetophenone exposure; details: 5% acetophenone exposure
Procedure: as §2, §3, §4, §5, §6, §1

T1 sequence (Q60882 whole entry): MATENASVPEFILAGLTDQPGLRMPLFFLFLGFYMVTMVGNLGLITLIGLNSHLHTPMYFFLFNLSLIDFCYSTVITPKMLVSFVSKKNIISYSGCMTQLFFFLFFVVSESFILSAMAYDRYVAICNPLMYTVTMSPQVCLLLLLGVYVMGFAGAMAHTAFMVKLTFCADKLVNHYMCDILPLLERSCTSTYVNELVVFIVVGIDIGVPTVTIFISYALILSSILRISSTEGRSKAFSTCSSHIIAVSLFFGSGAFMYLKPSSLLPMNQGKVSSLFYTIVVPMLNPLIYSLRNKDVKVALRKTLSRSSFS

## CC(=O)c1ccccc1 [acetophenone]
olfr145
  Olfr145 transcript decrease relative to controls (RNAseq): 74%
Olfr556
  EC50: < 50 µM
olfr745
  olfr745 candidate OR (RNAseq) confirmed by qPCR: y
olfr1350
  olfr1350 candidate OR (RNAseq) confirmed by qPCR: n
olfr922
  olfr922 candidate OR (RNAseq) confirmed by qPCR: y
olfr901
  olfr901 candidate OR (RNAseq) confirmed by qPCR: y
